Results: ChEMBL document CHEMBL1201862, “PubChem BioAssay data set” (2004)
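1) Cells in 96-well plates. 2) Compound, 48 h, 5 concentrations. 3) Linear interpolation between surrounding doses. 4) Unreached endpoint = highest concentration. At the GI50, growth is halved.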 The source made the active and inactive calls. No stated cut-off is given here; in the data, active = GI50 up to about 1.1 µM and inactive = higher.

Key:
Assay in all cases: inhibition of tumour cell growth, NCI panel, 48 h
MOLT-4 = tested on: MOLT-4
EKVX = tested on: EKVX
OVCAR-4 = tested on: OVCAR-4
SK-MEL-5 = tested on: SK-MEL-5
COLO 205 = tested on: COLO 205
SW-620 = tested on: SW-620
CCRF-CEM = tested on: CCRF-CEM
SF-539 = tested on: SF-539
OVCAR-8 = tested on: OVCAR-8
HCT-116 = tested on: HCT-116
LXFL 529 = tested on: LXFL 529
RXF 631 = tested on: RXF 631
DLD-1 = tested on: DLD-1
SF-268 = tested on: SF-268
NCI-H226 = tested on: NCI-H226
U-251 = tested on: U-251
Malme-3M = tested on: Malme-3M
SK-OV-3 = tested on: SK-OV-3
OVCAR-3 = tested on: OVCAR-3
CAKI-1 = tested on: CAKI-1
UACC-62 = tested on: UACC-62
OVCAR-5 = tested on: OVCAR-5
HCT-15 = tested on: HCT-15
A549 = tested on: A549
786-0 = tested on: 786-0
NCI-H460 = tested on: NCI-H460
DMS-273 = tested on: DMS-273
NCI-H23 = tested on: NCI-H23
XF498 = tested on: XF498
KM12 = tested on: KM12
SN12C = tested on: SN12C
TK-10 = tested on: TK-10
ACHN = tested on: ACHN
SNB-78 = tested on: SNB-78
A498 = tested on: A498
HOP-62 = tested on: HOP-62
M19-MEL = tested on: M19-MEL
HOP-92 = tested on: HOP-92
SF-295 = tested on: SF-295
RPMI-8226 = tested on: RPMI-8226
KM-20L2 = tested on: KM-20L2
HOP-18 = tested on: HOP-18
UACC-257 = tested on: UACC-257
SNB-19 = tested on: SNB-19
IGROV-1 = tested on: IGROV-1
K562 = tested on: K562
UO-31 = tested on: UO-31
HL-60 = tested on: HL-60
M14 = tested on: M14
NCI-H522 = tested on: NCI-H522
HCC 2998 = tested on: HCC 2998
HT-29 = tested on: HT-29
LOX IMVI = tested on: LOX IMVI

Measured: GI50

N#CC(C(=O)CCC(=O)Nc1cccc(C(F)(F)F)c1)c1ccc(Cl)cc1 (stereo not drawn)
> 100 µM: HCT-15
inactive: MOLT-4 > 100 µM | EKVX > 100 µM | OVCAR-4 > 100 µM | SK-MEL-5 > 100 µM | COLO 205 > 100 µM | SW-620 > 100 µM | CCRF-CEM > 100 µM | SF-539 > 100 µM | OVCAR-8 > 100 µM | HCT-116 > 100 µM | LXFL 529 > 100 µM | RXF 631 > 100 µM | DLD-1 > 100 µM | SF-268 > 100 µM | NCI-H226 > 100 µM | U-251 > 100 µM | Malme-3M > 100 µM | SK-OV-3 > 100 µM | OVCAR-3 > 100 µM | CAKI-1 > 100 µM | UACC-62 > 100 µM | OVCAR-5 > 100 µM | A549 > 100 µM | 786-0 > 100 µM | NCI-H460 > 100 µM | DMS-273 > 100 µM | NCI-H23 > 100 µM | XF498 > 100 µM | KM12 > 100 µM | SN12C > 100 µM | TK-10 > 100 µM | ACHN > 100 µM | SNB-78 > 100 µM | A498 > 100 µM | HOP-62 > 100 µM | M19-MEL > 100 µM | HOP-92 > 100 µM | SF-295 > 100 µM | RPMI-8226 > 100 µM | KM-20L2 > 100 µM | HOP-18 > 100 µM | UACC-257 > 100 µM | SNB-19 > 100 µM | IGROV-1 > 100 µM | K562 > 100 µM | UO-31 > 100 µM | HL-60 > 100 µM | M14 > 100 µM | NCI-H522 > 100 µM | HCC 2998 > 100 µM | HT-29 > 100 µM | LOX IMVI > 100 µM
